# Assay results from article PMC10004634 (PLOS ONE, 2023).
# Like-named read-outs stand apart in the source and are kept apart here.
# Experiments:
# Test in all cases: biochemical
# Design in all cases: KINOMEscan scanMAX competition binding, DNA-tagged kinases, qPCR read-out, percent control at 300 nM
# [1] = target: T1, RPS6KA5(Kin.Dom.1-N-terminal) (Homo sapiens, UniProt O75582)
# T1 construct: Kin.Dom.1-N-terminal
# [2] = target: T2, RPS6KA4(Kin.Dom.1-N-terminal) (Homo sapiens, UniProt O75676)
# T2 construct: Kin.Dom.1-N-terminal
# FGFR1 = FGFR1 (Homo sapiens, UniProt P11362)
# [3] = target: T3, ABL1(F317L)-nonphosphorylated (Homo sapiens, UniProt P00519, F317L)
# T3 construct: nonphosphorylated
# [4] = target: T4, RSK3(Kin.Dom.2-C-terminal) (Homo sapiens, UniProt Q15349)
# T4 construct: gene RPS6KA2; Kin.Dom.2-C-terminal
# CAMK2B = CAMK2B (Homo sapiens, UniProt Q13554)
# Sequence of CAMK2B (Q13554 whole entry): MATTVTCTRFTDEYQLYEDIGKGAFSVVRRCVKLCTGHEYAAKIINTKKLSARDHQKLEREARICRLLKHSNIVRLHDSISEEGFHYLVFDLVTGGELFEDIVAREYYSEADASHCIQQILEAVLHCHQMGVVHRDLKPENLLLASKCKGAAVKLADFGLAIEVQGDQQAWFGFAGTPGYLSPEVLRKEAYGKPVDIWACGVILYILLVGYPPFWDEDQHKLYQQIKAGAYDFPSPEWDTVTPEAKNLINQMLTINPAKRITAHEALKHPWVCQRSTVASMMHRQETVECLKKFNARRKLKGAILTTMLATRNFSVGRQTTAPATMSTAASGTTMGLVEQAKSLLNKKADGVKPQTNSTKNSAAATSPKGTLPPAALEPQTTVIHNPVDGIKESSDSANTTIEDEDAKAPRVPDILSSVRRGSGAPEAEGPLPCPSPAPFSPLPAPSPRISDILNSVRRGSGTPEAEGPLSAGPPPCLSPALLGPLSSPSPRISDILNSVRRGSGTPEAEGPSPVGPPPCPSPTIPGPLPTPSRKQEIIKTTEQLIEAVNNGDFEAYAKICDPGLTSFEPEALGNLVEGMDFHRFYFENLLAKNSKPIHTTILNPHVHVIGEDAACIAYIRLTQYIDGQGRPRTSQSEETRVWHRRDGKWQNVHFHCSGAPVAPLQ
# ERK4 = target: T5, ERK4 (Homo sapiens, UniProt P31152)
# T5 construct: gene MAPK4
# FLT3(D835Y) = FLT3(D835Y) (Homo sapiens, UniProt P36888, D835Y)
# [5] = target: T6, RSK2(Kin.Dom.1-N-terminal) (Homo sapiens, UniProt P51812)
# T6 construct: gene RPS6KA3; Kin.Dom.1-N-terminal
# MYLK = MYLK (Homo sapiens, UniProt Q15746)
# [6] = target: T7, RSK3(Kin.Dom.1-N-terminal) (Homo sapiens, UniProt Q15349)
# T7 construct: gene RPS6KA2; Kin.Dom.1-N-terminal
# PAK3 = PAK3 (Homo sapiens, UniProt O75914)
# Sequence of PAK3 (O75914 whole entry): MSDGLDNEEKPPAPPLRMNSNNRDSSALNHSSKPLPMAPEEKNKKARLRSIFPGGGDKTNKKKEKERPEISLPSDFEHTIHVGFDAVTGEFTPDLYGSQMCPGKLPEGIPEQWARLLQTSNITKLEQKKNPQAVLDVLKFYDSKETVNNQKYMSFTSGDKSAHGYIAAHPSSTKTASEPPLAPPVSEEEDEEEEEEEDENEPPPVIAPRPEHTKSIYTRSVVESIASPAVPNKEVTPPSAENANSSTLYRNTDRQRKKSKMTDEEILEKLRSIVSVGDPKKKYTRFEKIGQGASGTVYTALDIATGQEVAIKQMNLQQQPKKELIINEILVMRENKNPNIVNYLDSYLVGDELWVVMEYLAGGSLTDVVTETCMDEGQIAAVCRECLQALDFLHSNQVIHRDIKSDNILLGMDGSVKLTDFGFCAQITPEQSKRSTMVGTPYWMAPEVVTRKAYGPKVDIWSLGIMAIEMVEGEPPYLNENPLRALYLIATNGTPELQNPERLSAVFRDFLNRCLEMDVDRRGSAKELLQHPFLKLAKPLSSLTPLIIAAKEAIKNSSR
# QSK = target: T8, QSK (Homo sapiens, UniProt Q9Y2K2)
# T8 construct: gene SIK3
# T8 sequence (Q9Y2K2 whole entry): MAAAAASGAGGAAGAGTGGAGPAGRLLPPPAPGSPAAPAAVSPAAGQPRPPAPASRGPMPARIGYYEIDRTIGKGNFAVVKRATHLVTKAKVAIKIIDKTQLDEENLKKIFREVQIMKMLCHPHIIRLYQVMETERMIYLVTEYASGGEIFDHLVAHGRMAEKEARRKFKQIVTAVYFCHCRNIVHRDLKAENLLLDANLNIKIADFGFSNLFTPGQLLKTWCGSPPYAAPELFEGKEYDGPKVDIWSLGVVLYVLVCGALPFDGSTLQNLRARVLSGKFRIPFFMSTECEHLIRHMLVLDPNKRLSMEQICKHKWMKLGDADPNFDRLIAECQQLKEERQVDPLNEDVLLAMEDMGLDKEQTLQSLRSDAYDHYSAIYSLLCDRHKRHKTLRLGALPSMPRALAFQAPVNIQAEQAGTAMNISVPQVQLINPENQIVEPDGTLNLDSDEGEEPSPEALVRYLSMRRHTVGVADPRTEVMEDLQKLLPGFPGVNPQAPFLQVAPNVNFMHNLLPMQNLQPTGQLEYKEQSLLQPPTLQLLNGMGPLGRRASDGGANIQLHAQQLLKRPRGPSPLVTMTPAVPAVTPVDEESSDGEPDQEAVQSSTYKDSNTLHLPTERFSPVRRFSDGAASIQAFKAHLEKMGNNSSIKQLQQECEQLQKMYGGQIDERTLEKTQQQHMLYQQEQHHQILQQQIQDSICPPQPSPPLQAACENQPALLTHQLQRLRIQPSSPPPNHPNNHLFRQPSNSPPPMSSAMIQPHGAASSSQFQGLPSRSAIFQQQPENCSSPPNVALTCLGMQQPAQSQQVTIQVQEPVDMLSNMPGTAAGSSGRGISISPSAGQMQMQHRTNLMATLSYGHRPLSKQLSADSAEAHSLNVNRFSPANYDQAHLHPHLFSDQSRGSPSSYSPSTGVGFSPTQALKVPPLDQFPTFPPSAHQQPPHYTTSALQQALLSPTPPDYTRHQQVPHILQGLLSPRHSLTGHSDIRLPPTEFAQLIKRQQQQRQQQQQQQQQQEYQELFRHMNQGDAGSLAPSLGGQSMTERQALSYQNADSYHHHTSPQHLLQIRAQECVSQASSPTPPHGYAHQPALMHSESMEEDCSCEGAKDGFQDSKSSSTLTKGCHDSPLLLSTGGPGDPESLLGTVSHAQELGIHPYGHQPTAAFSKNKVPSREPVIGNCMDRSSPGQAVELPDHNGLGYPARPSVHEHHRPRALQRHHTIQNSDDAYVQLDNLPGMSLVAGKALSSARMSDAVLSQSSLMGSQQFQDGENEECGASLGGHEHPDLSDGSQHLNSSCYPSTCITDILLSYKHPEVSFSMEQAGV
# CAMKK2 = CAMKK2 (Homo sapiens, UniProt Q96RR4)
# PIM1 = PIM1 (Homo sapiens, UniProt P11309)
# PRKD2 = PRKD2 (Homo sapiens, UniProt Q9BZL6)
# [7] = target: T9, RPS6KA4(Kin.Dom.2-C-terminal) (Homo sapiens, UniProt O75676)
# T9 construct: Kin.Dom.2-C-terminal
# CAMK2D = CAMK2D (Homo sapiens, UniProt Q13557)
# Sequence of CAMK2D (Q13557 whole entry): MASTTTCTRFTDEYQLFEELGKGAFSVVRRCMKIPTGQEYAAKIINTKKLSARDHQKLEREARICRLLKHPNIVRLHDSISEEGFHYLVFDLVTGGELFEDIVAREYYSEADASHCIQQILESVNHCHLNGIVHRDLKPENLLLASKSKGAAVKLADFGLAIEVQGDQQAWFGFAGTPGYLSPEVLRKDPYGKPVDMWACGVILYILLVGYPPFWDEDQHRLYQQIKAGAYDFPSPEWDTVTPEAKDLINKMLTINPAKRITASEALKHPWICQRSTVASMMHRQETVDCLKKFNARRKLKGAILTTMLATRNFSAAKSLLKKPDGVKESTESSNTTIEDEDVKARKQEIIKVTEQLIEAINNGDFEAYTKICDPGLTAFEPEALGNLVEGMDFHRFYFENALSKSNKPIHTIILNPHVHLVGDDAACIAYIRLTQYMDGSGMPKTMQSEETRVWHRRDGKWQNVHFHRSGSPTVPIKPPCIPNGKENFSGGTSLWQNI
# ERK8 = target: T10, ERK8 (Homo sapiens, UniProt Q8TD08)
# T10 construct: gene MAPK15
# T10 sequence (Q8TD08 whole entry): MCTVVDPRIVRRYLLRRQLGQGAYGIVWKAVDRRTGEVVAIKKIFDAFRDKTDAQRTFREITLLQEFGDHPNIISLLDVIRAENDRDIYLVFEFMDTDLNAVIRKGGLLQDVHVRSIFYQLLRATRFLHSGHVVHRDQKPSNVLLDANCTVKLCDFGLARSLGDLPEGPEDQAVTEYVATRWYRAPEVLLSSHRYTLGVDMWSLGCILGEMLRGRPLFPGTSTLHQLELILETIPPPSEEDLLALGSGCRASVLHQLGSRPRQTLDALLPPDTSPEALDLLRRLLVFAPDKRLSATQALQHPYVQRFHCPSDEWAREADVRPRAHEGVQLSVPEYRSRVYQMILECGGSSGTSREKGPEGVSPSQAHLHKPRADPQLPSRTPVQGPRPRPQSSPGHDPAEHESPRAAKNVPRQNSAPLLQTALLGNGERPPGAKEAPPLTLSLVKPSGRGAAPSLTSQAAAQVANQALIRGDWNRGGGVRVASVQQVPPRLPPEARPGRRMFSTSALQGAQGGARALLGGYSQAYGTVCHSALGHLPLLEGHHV
# PCTK2 = target: T11, PCTK2 (Homo sapiens, UniProt Q00537)
# T11 construct: gene CDK17
# T11 sequence (Q00537 whole entry): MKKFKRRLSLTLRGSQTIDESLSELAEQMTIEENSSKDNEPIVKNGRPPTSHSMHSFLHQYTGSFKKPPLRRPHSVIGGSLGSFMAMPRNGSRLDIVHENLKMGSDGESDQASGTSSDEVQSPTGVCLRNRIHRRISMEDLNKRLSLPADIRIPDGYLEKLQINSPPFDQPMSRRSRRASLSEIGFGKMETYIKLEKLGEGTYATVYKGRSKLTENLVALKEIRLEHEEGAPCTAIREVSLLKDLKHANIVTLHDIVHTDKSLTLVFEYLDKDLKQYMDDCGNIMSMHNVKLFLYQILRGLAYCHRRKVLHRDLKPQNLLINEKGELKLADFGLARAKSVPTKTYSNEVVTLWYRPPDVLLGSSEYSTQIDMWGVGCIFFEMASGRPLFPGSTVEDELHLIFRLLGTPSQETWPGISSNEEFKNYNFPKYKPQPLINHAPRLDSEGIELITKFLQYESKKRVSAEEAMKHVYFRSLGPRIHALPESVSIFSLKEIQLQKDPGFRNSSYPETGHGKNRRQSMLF
# SRPK2 = SRPK2 (Homo sapiens, UniProt P78362)
# CLK1 = CLK1 (Homo sapiens, UniProt P49759)
# [8] = read-out: Percent control / Ibrutinib
# [9] = read-out: Percent control / Zanubrutinib
# [10] = read-out: Percent control / Acalabrutinib
# T1 sequence (O75582 whole entry): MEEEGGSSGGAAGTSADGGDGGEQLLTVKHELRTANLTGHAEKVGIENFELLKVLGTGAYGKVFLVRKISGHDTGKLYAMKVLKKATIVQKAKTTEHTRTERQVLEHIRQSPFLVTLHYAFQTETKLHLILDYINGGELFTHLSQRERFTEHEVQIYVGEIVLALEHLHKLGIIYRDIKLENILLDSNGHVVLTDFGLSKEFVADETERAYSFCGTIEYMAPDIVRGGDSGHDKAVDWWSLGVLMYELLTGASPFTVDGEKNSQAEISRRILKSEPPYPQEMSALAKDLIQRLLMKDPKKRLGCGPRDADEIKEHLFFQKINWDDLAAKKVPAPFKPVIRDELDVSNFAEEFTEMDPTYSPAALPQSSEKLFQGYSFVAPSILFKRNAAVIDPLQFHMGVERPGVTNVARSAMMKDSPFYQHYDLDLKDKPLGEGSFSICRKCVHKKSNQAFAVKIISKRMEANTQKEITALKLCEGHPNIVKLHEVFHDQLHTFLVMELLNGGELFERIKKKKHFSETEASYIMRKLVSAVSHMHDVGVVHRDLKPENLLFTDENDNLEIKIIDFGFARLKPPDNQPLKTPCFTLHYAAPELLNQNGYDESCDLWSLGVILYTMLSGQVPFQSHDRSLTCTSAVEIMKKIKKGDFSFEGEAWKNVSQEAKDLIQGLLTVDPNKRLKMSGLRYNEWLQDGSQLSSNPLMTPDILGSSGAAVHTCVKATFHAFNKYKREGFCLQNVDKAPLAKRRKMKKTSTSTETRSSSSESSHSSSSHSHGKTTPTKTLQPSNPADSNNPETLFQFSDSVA
structure (smiles),measurement,setting,value
CC#CC(=O)N1CC[C@@H](n2c(=O)n(-c3ccc(Oc4ccccc4)cc3)c3c(N)ncnc32)C1 [Tirabrutinib],remaining binding at 0.3 µM,[1]; read-out: Percent control / Tirabrutinib,80%
C=CC(=O)N1CCC[C@@H](n2nc(-c3ccc(Oc4ccccc4)cc3)c3c(N)ncnc32)C1 [Ibrutinib],remaining binding at 0.3 µM,[2]; [8],87%
same,remaining binding at 0.3 µM,FGFR1; [8],66%
same,remaining binding at 0.3 µM,[3]; [8],54%
same,remaining binding at 0.3 µM,[4]; [8],90%
same,remaining binding at 0.3 µM,CAMK2B; [8],90%
C=CC(=O)N1CCC([C@@H]2CCNc3c(C(N)=O)c(-c4ccc(Oc5ccccc5)cc4)nn32)CC1 [Zanubrutinib],remaining binding at 0.3 µM,ERK4; [9],99%
same,remaining binding at 0.3 µM,FLT3(D835Y); [9],47%
same,remaining binding at 0.3 µM,[5]; [9],82%
same,remaining binding at 0.3 µM,MYLK; [9],82%
same,remaining binding at 0.3 µM,[2]; [9],100%
same,remaining binding at 0.3 µM,[6]; [9],100%
same,remaining binding at 0.3 µM,FGFR1; [9],68%
same,remaining binding at 0.3 µM,PAK3; [9],83%
same,remaining binding at 0.3 µM,QSK; [9],45%
same,remaining binding at 0.3 µM,CAMKK2; [9],87%
same,remaining binding at 0.3 µM,PIM1; [9],73%
same,remaining binding at 0.3 µM,[1]; [9],100%
same,remaining binding at 0.3 µM,PRKD2; [9],100%
same,remaining binding at 0.3 µM,[7]; [9],100%
same,remaining binding at 0.3 µM,CAMK2D; [9],80%
same,remaining binding at 0.3 µM,ERK8; [9],87%
same,remaining binding at 0.3 µM,PCTK2; [9],82%
same,remaining binding at 0.3 µM,SRPK2; [9],96%
same,remaining binding at 0.3 µM,[4]; [9],84%
same,remaining binding at 0.3 µM,CAMK2B; [9],68%
same,remaining binding at 0.3 µM,CLK1; [9],90%
CC#CC(=O)N1CCC[C@H]1c1nc(-c2ccc(C(=O)Nc3ccccn3)cc2)c2c(N)nccn12 [Acalabrutinib],remaining binding at 0.3 µM,ERK4; [10],96%
same,remaining binding at 0.3 µM,FLT3(D835Y); [10],82%
same,remaining binding at 0.3 µM,[5]; [10],84%
same,remaining binding at 0.3 µM,MYLK; [10],82%
same,remaining binding at 0.3 µM,[6]; [10],85%
same,remaining binding at 0.3 µM,PAK3; [10],77%
same,remaining binding at 0.3 µM,QSK; [10],90%
same,remaining binding at 0.3 µM,CAMKK2; [10],97%
same,remaining binding at 0.3 µM,PIM1; [10],94%
same,remaining binding at 0.3 µM,PRKD2; [10],70%
same,remaining binding at 0.3 µM,[3]; [10],78%
same,remaining binding at 0.3 µM,[7]; [10],96%
same,remaining binding at 0.3 µM,CAMK2D; [10],93%
same,remaining binding at 0.3 µM,ERK8; [10],88%
same,remaining binding at 0.3 µM,PCTK2; [10],97%
same,remaining binding at 0.3 µM,SRPK2; [10],90%
same,remaining binding at 0.3 µM,CLK1; [10],92%
